Test results published in US20120016019A1, “PHARMACEUTICAL COMPOSITION FOR TREATING OR PREVENTING CANCER” (priority 2010, published 2012).
Values joined by “and” are separate entries in the source; they are usually repeats but may differ in a detail not shown here. Equal values may be shown once.

Tests used:
[1] = test system: HeLa; assay: Cell counts, HeLa; type: cell-based
Method: As a result, LC-50 curves were generated in the 1st week.
In the 2nd plate, 7 d of the 1st week (LC-50) is the same as 0 h of the 2nd week (recovery).
At 0 h of the 2nd week, medium was exchanged with untreated medium for the remainder of the experiment. The untreated controls were not measured in the 2nd week (recovery) due to overconfluence by the end of the 1st week. As a result, Recovery curves were generated in the 2nd week.

[2] = test system: PC-3; assay: Cell counts, PC-3; type: cell-based, human; conditions: for cell counts: single wells
Method: Cells were harvested using Trypsin-EDTA at the designated time points. […] Two 48-well plates were used per cell line, and they were measured at 0 h, 12 h, 24 h, 48 h, 4 d and 7 d, respectively.
In the 1st plate, cells were treated with the composition according to the invention and medium was changed at 0 h and 3 d.

[3] = test system: HCC 1419; assay: XTT cell viability assay, HCC 1419; conditions: for The absorbance, Mean value / The absorbance / The absorbance, group - Blank: XTT 500 nm; for The absorbance: single wells
Method: Cancer cell lines HCC 1419, MCF-7, MDA-MB-468, SKBR3, PC3, HT1299, Saos-2, C-6, AsPc, MDA-MB-231, RKO, HeLa and TT, and normal cell lines HME 50 HT, BJ and CCD-1074sk were tested for changes in metabolism (XTT assay) and cell death (cell counts).
Cells were plated into 48-well Corning CellBind™ plates at densities of 20,000 cells for normal cells and 10,000˜20,000 cells for cancer cells. 24 to 48 h after plating, cells were treated with the composition according to the invention at concentrations of 4.5e-2M. The first time point treated with the composition of the invention is 0 h. At 3 days after the first treatment with the composition of the invention, medium was changed and the composition of the invention at the same concentrations were added to the cultured cells.
The XTT assay is an accepted analysis technique for viability and cytotoxicity of anticancer drugs or other pharmaceutical compositions. Cells were seeded in a 96-well tissue culture plate at a density of 10,000 cells for normal cells and 5,000 cells for cancer cells. After incubation period, the formazan dye formed was quantitated using an ELISA reader. The optimal wavelength used in experiments was 500 nm, and it was measured at 0 h, 12 h, 24 h, 48 h, 4 d and 7 d, respectively. The obtained values were generated using the software SoftMax Pro 4.8.
The cell viability was calculated according to the manufacturer's instructions as follows (the term “blank” means XTT in medium only):
Cellular cytotoxicity was calculated according to the manufacturer's instructions as follows: […]

[4] = test system: TT; assay: XTT cell viability assay, TT; type: cell-based; conditions: for The absorbance, group - Blank: mean minus blank; for The absorbance: single value
[5] = HCC 1419, 1st week (LC50), 24 h
[6] = HCC 1419, 1st week (LC50), 48 h
[7] = HCC 1419, 2nd week (recovery), 0 h
[8] = HCC 1419, 2nd week (recovery), 48 h
[9] = HCC 1419, 2nd week (recovery), 4 d

Compound: CC(=O)O[C@H]1C(=O)[C@@]2(C)[C@H]([C@H](OC(=O)c3ccccc3)[C@]3(O)C[C@H](OC(=O)[C@H](O)[C@@H](NC(=O)c4ccccc4)c4ccccc4)C(C)=C1C3(C)C)[C@]1(OC(C)=O)CO[C@@H]1C[C@@H]2O [Taxol]
- cell counts ([1]; 1st week (LC50), 0 h): 158000 and 136000 and 184000
- cell counts, Mean value ([1]; 1st week (LC50), 0 h): 159333
- cell counts ([1]; 1st week (LC50), 24 h): 158000 and 276000 and 219000
- cell counts, Mean value ([1]; 1st week (LC50), 24 h): 217667
- cell counts ([1]; 1st week (LC50), 48 h): 105000 and 70000 and 79000
- cell counts, Mean value ([1]; 1st week (LC50), 48 h): 84667
- cell counts ([1]; 1st week (LC50), 4 d): 26000 and 39000 and 31000
- cell counts, Mean value ([1]; 1st week (LC50), 4 d): 32000
- cell counts ([1]; 1st week (LC50), 7 d): 36000 and 34000 and 32000
- cell counts, Mean value ([1]; 1st week (LC50), 7 d): 34000
- cell counts ([1]; 2nd week (recovery), 0 h): 31000 and 34000 and 35000
- cell counts, Mean value ([1]; 2nd week (recovery), 0 h): 33333
- cell counts, Mean value ([1]; 2nd week (recovery), 24 h): 23333
- cell counts ([1]; 2nd week (recovery), 48 h): 12000 and 23500 and 22000
- cell counts, Mean value ([1]; 2nd week (recovery), 48 h): 19167
- cell counts ([1]; 2nd week (recovery), 4 d): 22000 and 18000 and 13000
- cell counts, Mean value ([1]; 2nd week (recovery), 4 d): 17667
- cell counts ([1]; 2nd week (recovery), 7 d): 18000
- cell counts, Mean value ([1]; 2nd week (recovery), 7 d): 18000
- killing of PC-3 cells [2]: relatively resistant to Taxol
- cell counts, Mean value ([2]; 1st week (LC50), 0 h): 6580
- cell counts, Mean value ([2]; 1st week (LC50), 12 h): 5462
- cell counts ([2]; 1st week (LC50), 12 h): 4805 and 5805 and 5775
- cell counts, Mean value ([2]; 1st week (LC50), 24 h): 5205
- cell counts ([2]; 1st week (LC50), 24 h): 4360 and 4820 and 6435
- cell counts, Mean value ([2]; 1st week (LC50), 48 h): 2013
- cell counts ([2]; 1st week (LC50), 48 h): 1821 and 1969
- cell counts, Mean value ([2]; 1st week (LC50), 4 d): 1029
- cell counts ([2]; 1st week (LC50), 4 d): 861 and 975 and 1250
- cell counts, Mean value ([2]; 2nd week (recovery), 0 h): 514
- cell counts ([2]; 2nd week (recovery), 0 h): 392 and 389 and 760
- cell counts, Mean value ([2]; 2nd week (recovery), 24 h): 305
- cell counts ([2]; 2nd week (recovery), 24 h): 269 and 328 and 318
- cell counts, Mean value ([2]; 2nd week (recovery), 48 h): 350
- cell counts ([2]; 2nd week (recovery), 48 h): 369 and 303 and 378
- cell counts, Mean value ([2]; 2nd week (recovery), 4 d): 1324
- cell counts ([2]; 2nd week (recovery), 4 d): 1574 and 1376 and 1023
- cell counts, Mean value ([2]; 2nd week (recovery), 7 d): 483
- The absorbance, Mean value ([3]; HCC 1419, 1st week (LC50), 0 h): 2.5924
- The absorbance ([3]; HCC 1419, 1st week (LC50), 0 h): 2.5534 and 2.6558 and 2.5679
- The absorbance, group - Blank ([3]; HCC 1419, 1st week (LC50), 12 h): 2.0317
- The absorbance, Mean value [3, 5]: 2.8401
- The absorbance, group - Blank [3, 5]: 2.5035
- The absorbance [3, 5]: 2.9427 and 2.856 and 2.7216
- The absorbance, Mean value [3, 6]: 3.4706
- The absorbance, group - Blank [3, 6]: 3.1340
- The absorbance [3, 6]: 3.7945 and 2.9086 and 3.7087
- The absorbance, Mean value ([3]; HCC 1419, 1st week (LC50), 4 d): 2.6666
- The absorbance ([3]; HCC 1419, 1st week (LC50), 4 d): 2.6667 and 2.7014 and 2.6316
- The absorbance, Mean value ([3]; HCC 1419, 1st week (LC50), 7 d): 2.5386
- The absorbance ([3]; HCC 1419, 1st week (LC50), 7 d): 2.6877 and 2.5421
- The absorbance, Mean value [3, 7]: 2.4911
- The absorbance [3, 7]: 2.7348
- The absorbance ([3]; HCC 1419, 2nd week (recovery), 24 h): 2.4388
- The absorbance, Mean value [3, 8]: 2.6525
- The absorbance, group - Blank [3, 8]: 2.4436
- The absorbance [3, 8]: 2.6611 and 2.6375 and 2.6588
- The absorbance, Mean value [3, 9]: 2.6058
- The absorbance [3, 9]: 2.7024 and 2.5033 and 2.6116
- The viability ([3]; HCC 1419, XTT, 1/100 of %, 2nd week (recovery), 48 h): 0.8937
- The viability ([3]; human, 12 h, 220 nM): 0.7658
- The viability ([3]; human, 48 h, 220 nM): 1.1461
- The viability ([3]; human, 7 d, 220 nM): 0.9883
- The cytotoxicity ([4]; 1st week (LC50), 0 h): 0.6095
- The viability ([4]; 1st week (LC50), 0 h): 0.3905
- The absorbance, group - Blank ([4]; 1st week (LC50), 0 h): 0.1760
- The absorbance, Mean value ([4]; 1st week (LC50), 0 h): 0.4394
- The absorbance ([4]; 1st week (LC50), 0 h): 0.4452 and 0.4456
- The cytotoxicity ([4]; 1st week (LC50), 12 h): −0.2604
- The viability ([4]; 1st week (LC50), 12 h): 1.2604
- The absorbance, group - Blank ([4]; 1st week (LC50), 12 h): 1.5590
- The absorbance, Mean value ([4]; 1st week (LC50), 12 h): 1.8224
- The absorbance ([4]; 1st week (LC50), 12 h): 1.512 and 1.5452
- The cytotoxicity ([4]; 1st week (LC50), 24 h): −0.0831
- The viability ([4]; 1st week (LC50), 24 h): 1.0831
- The absorbance, group - Blank ([4]; 1st week (LC50), 24 h): 2.2745
- The absorbance, Mean value ([4]; 1st week (LC50), 24 h): 2.5379
- The cytotoxicity ([4]; 1st week (LC50), 48 h): 0.5671
- The viability ([4]; 1st week (LC50), 48 h): 0.4329
- The absorbance, group - Blank ([4]; 1st week (LC50), 48 h): 1.1834
- The absorbance, Mean value ([4]; 1st week (LC50), 48 h): 1.4468
- The absorbance ([4]; 1st week (LC50), 48 h): 1.6834 and 1.3166
- The cytotoxicity ([4]; 1st week (LC50), 4 d): −0.3186
- The viability ([4]; 1st week (LC50), 4 d): 1.3186
- The absorbance, group - Blank ([4]; 1st week (LC50), 4 d): 1.9816
- The cytotoxicity ([4]; 1st week (LC50), 7 d): 0.5080
- The viability ([4]; 1st week (LC50), 7 d): 0.4920
- The absorbance, group - Blank ([4]; 1st week (LC50), 7 d): 0.9498
- The absorbance, Mean value ([4]; 1st week (LC50), 7 d): 1.2132
- The absorbance ([4]; 1st week (LC50), 7 d): 1.2763
- The cytotoxicity ([4]; 2nd week (recovery), 0 h): −3.3443
- The viability ([4]; 2nd week (recovery), 0 h): 4.3443
- The absorbance, group - Blank ([4]; 2nd week (recovery), 0 h): 1.9578
- The absorbance, Mean value ([4]; 2nd week (recovery), 0 h): 2.2212
- The cytotoxicity ([4]; 2nd week (recovery), 12 h): −0.1062
- The viability ([4]; 2nd week (recovery), 12 h): 1.1062
- The absorbance, group - Blank ([4]; 2nd week (recovery), 12 h): 2.3230
- The absorbance, Mean value ([4]; 2nd week (recovery), 12 h): 2.5864
- The cytotoxicity ([4]; 2nd week (recovery), 24 h): 0.5481
- The viability ([4]; 2nd week (recovery), 24 h): 0.4519
- The absorbance, group - Blank ([4]; 2nd week (recovery), 24 h): 1.2354
- The absorbance, Mean value ([4]; 2nd week (recovery), 24 h): 1.4988
- The cytotoxicity ([4]; 2nd week (recovery), 48 h): 0.6857
- The viability ([4]; 2nd week (recovery), 48 h): 0.3143
- The absorbance, group - Blank ([4]; 2nd week (recovery), 48 h): 0.4723
- The absorbance, Mean value ([4]; 2nd week (recovery), 48 h): 0.7357
- The cytotoxicity ([4]; 2nd week (recovery), 4 d): 0.8411
- The viability ([4]; 2nd week (recovery), 4 d): 0.1589
- The absorbance, group - Blank ([4]; 2nd week (recovery), 4 d): 0.3067
- The absorbance, Mean value ([4]; 2nd week (recovery), 4 d): 0.5701
- The absorbance ([4]; 2nd week (recovery), 4 d): 0.4887 and 0.7079 and 0.5136
- The cytotoxicity ([4]; 2nd week (recovery), 7 d): −3.3443
- The viability ([4]; 2nd week (recovery), 7 d): 4.3443
- The absorbance, group - Blank ([4]; 2nd week (recovery), 7 d): 1.9578
- The absorbance, Mean value ([4]; 2nd week (recovery), 7 d): 0.2634
- The absorbance ([4]; 2nd week (recovery), 7 d): 0.2616 and 0.2542 and 0.2744
